# Key:
# Format in all cases: functional
# [1] = test system: KM12; assay: Cytotoxicity against human KM12 cells; details: read-out: ED50 (the source's name)
# [2] = test system: COLO 205; assay: Cytotoxicity against human COLO205 cells; details: read-out: ED50 (the source's name)
# [3] = test system: HT-29; assay: Cytotoxicity against human HT-29 cells; details: read-out: ED50 (the source's name)
# [4] = test system: SW-620; assay: Cytotoxicity against human SW620 cells; details: read-out: ED50 (the source's name)
# [5] = test system: HCT-116; assay: Cytotoxicity against human HCT116 cells; details: read-out: ED50 (the source's name)
# [6] = test system: HCT-15; assay: Cytotoxicity against human HCT15 cells; details: read-out: ED50 (the source's name)
# [7] = test system: UACC-62; assay: Cytotoxicity against human UACC62 cells; details: read-out: LC50 (the source's name)
# [8] = test system: SK-MEL-28; assay: Cytotoxicity against human SK-MEL-28 cells; details: read-out: LC50 (the source's name)
# [9] = test system: SK-MEL-5; assay: Cytotoxicity against human SK-MEL-5 cells; details: read-out: LC50 (the source's name)
SMILES,EC50 [1] [µg/mL],EC50 [2] [µg/mL],EC50 [3] [µg/mL],EC50 [4] [µg/mL],EC50 [5] [µg/mL],EC50 [6] [µg/mL],CC50 [7] [µg/mL],CC50 [8] [µg/mL],CC50 [9] [µg/mL]
COc1ccc(C(=O)/C=C/c2ccc(Oc3cc(C(=O)/C=C/c4ccc(O)cc4)c(O)cc3OC)cc2)c(O)c1 [RHUSCHALCONE I],17,11,3,42,5,51,–,–,–
COc1cc(O)c(C(=O)/C=C/c2ccc(O)cc2)cc1Oc1ccc(C(=O)/C=C/c2ccc(O)cc2)c(O)c1 [RHUSCHALCONE IV],–,23,–,–,–,–,4.6,4.6,4.8
COc1cc(O)c(C(=O)/C=C/c2ccc(O)cc2)cc1Oc1ccc(/C=C/C(=O)c2ccc(O)cc2O)cc1 [RHUSCHALCONE III],4,4,3,3,5,4,–,–,–
O=C(/C=C/c1ccc(Oc2cc(C(=O)/C=C/c3ccc(O)cc3)c(O)cc2O)cc1)c1ccc(O)cc1O [RHUSCHALCONE II],19,15,14,–,15,–,–,–,–
O=C(/C=C/c1ccc(O)c(-c2cc(C(=O)/C=C/c3ccc(O)cc3)c(O)cc2O)c1)c1ccc(O)cc1O [RHUSCHALCONE VI],–,24,10,–,5,–,–,–,–

# — ChEMBL document CHEMBL1159379, “Rhuschalcones II-VI, five new bichalcones from the root bark of Rhus pyroides” (2003)
